Earlier results as cited in patent US20250216408A1, “REAGENT COMBINATION AND METHOD FOR DETECTING TARGET IMMUNOSUPPRESSANT IN WHOLE BLOOD WITHOUT CENTRIFUGATION” (Shenzhen New Industries Biomedical Engineering co., Ltd., priority 2023, published 2025).

Tests used:
[1] = FK506 in plasma

C=CC[C@@H]1/C=C(\C)C[C@H](C)C[C@H](OC)[C@H]2O[C@@](O)(C(=O)C(=O)N3CCCC[C@H]3C(=O)O[C@H](/C(C)=C/[C@@H]3CC[C@@H](O)[C@H](OC)C3)[C@H](C)[C@@H](O)CC1=O)[C@H](C)C[C@@H]2OC [FK506, tacrolimus]
Share of drug in whole blood taken up by / present in / bound to red blood cells: 75%-80%
Plasma protein binding rate [1]: over 98%

CO[C@H]1C[C@@H]2CC[C@@H](C)[C@@](O)(O2)C(=O)C(=O)N2CCCC[C@H]2C(=O)O[C@H]([C@H](C)C[C@@H]2CC[C@@H](O)[C@H](OC)C2)CC(=O)[C@H](C)/C=C(\C)[C@@H](O)[C@@H](OC)C(=O)[C@H](C)C[C@H](C)/C=C/C=C/C=C/1C [sirolimus]
Share of drug in whole blood taken up by / present in / bound to red blood cells: 95%
